The record followed here is EP0062704A1, “Cyclopropanecarboxylic-acid ester as an agent in the fight against larves of the Gasterophilidae family in Equidae” (HOECHST AKTIENGESELLSCHAFT, priority 1980, dated 1982).

Marks after values point to notes of the source that are not given here.

For assay [1], the system named is Larven III der Magenbremse, Gasterophilus intestinalis. The experiment in a line: In vitro test on larvae III of Gasterophilus intestinalis (5 min immersion, mortality count). To be noted: 10 larvae immersed 5 min in 0,1 % active dilution, kept at about 37°C. An excerpt:
Beispiel 2 : In vitro Test an Larven von Gasterophilus intestinalis
Die Verbindungen (S)-a-Cyan-3-phenoxybenzyl(1R)-cis-3-(2,2-dibromvinyl)-2,2-dimethylcyclopropancarboxylat, nachfolgend bezeichnet als Verbindung A, (S)-a-Cyan-3-phenoxybenzyl (1R)-cis-3-(2,2-dichlorvinyl)-2,2-dimethylcyclopropancarboxylat, nachfolgend bezeichnet als Verbindung B, (S)-o-Cyan-3-phenoxybenzyl(1R)-cis-3-(2', 2'-dichlor-1',2'-dibromäthyl)-2,2-dimethylcyclopropancarboxylat, nachfolgend bezeichnet als Verbindung C, werden in Zubereitungen nach Beispiel 1 a) so in Wasser verdünnt, daß die Verdünnungen 0,1 % der Wirkstoffe enthalten. Zum Vergleich wird Dimethyl-2,2,2-trichloro-1-hydroxyäthyl-phosphonat (Trichlorfon) in derselben Verdünnung verwendet.
Larven III der Magenbremse, Gasterophilus intestinalis, werden aus dem Magen eines geschlachteten Pferdes entnommen. Jeweils zehn Larven werden in Bechergläsern in die Verdünnungen für 5 Minuten eingetaucht. Zur Kontrolle werden 10 Larven in Wasser eingetaucht. Danach werden die Larven auf Filterpapier getrocknet und in Behälter aus Styropor verbracht, die unter einer Wärmelampe bei etwa 37°C aufbewahrt werden. Nach 1, 6, 24, 48, 72, 96 und 120 Stunden werden alle Larven untersucht und deren Mortalität protokolliert.

For another assay, the system named is Gasterophilus nasalis. Description: In vivo test in horses infested with stomach bots: G. nasalis. As to conditions: 10 mg/kg by nasogastric tube; for %-Wirksamkeit: expelled and dead larvae as percent of all larvae present, horse; for noch im Magen festgeheftet: larvae at necropsy on day 7, horse; for Zahl der Larven im Kot Total: total of days 1-7, horse. As for the experimental part:
(§1) Beispiel 3: In vivo-Prüfung an Pferden mit Magendasselbefall
(§2) Zwei Pferde mit Körpergewichten von 190 kg und 142 kg werden mit den Verbindungen A bzw. C aus Beispiel II behandelt. Die Dosis beträgt 10 mg/kg Körpergewicht. Die sich aus der Dosis und der Konzentration der Arzneizubereitung nach Beispiel 2 zu errechnende Menge der Zubereitung wird im Volumenverhältnis 1 : 1 mit Wasser verdünnt und den Pferden mittels Nasenschlundsonde verabreicht.
(§3) Nach der Behandlung werden die Pferde in Einzelboxen aufgestellt. […] Vorhandene Dassellarven werden gezählt und ihre Artzugehörigkeit bestimmt. Am siebten Tag nach der Behandlung werden die Pferde getötet und der Magen-Darmtrakt auf das Vorhandensein noch angehefteter und toter Dassellarven untersucht.
(§4) Die Zahl der abgegangenen und toten Larven wird auf die Gesamtzahl vorhandener Larven prozentual bezogen und ihr Prozentsatz als "% Wirksamkeit" bezeichnet. Somit besagen 100 %, daß alle und 0 %, daß keine Larven abgetötet und abgetrieben werden.

The subject of assay [2] is Gasterophilus intestinalis. Description: In vivo test in horses infested with stomach bots: G. intestinalis. As to conditions: 10 mg/kg by nasogastric tube; for %-Wirksamkeit: expelled and dead larvae as percent of all larvae present, horse; for noch im Magen festgeheftet: larvae at necropsy on day 7, horse; for Zahl der Larven im Kot Total: total of days 1-7, horse. As for the experimental part:
as §1, §2, §3, §4

Consider `COP(=O)(OC)C(O)C(Cl)(Cl)Cl` (centres unmarked) [Trichlorfon, Dimethyl-2,2,2-trichloro-1-hydroxyäthyl-phosphonat, reference compound], for which the “Zahl toter Larven Stunden nach Behandlung” value is recorded as 6* in assay [1] (1 h after treatment); 7* in assay [1] (6 h after treatment); 4* in assay [1] (24 h after treatment); 5* in assay [1] (48 h after treatment); 9* in assay [1] (72 h after treatment); 6* in assay [1] (96 h after treatment). Further, the “Zahl toter Larven Stunden nach Behandlung” value in assay [1] (120 h after treatment) is listed as 6*.

For `CC1(C)[C@H](C(=O)O[C@H](C#N)c2cccc(Oc3ccccc3)c2)[C@@H]1C=C(Br)Br` [Verbindung A, (S)-a-Cyan-3-phenoxybenzyl(1R)-cis-3-(2,2-dibromvinyl)-2,2-dimethylcyclopropancarboxylat], the “Zahl der Larven im Kot an den Tagen nach der Behandlung” value was 1 in the assay on Gasterophilus nasalis (day 1, horse); 4 with Gasterophilus nasalis (day 2, horse); 1 in the assay with Gasterophilus nasalis (day 3, horse); 0 in the assay with Gasterophilus nasalis (day 4, horse); 0 in the assay with Gasterophilus nasalis (day 5, horse); 0 with Gasterophilus nasalis (day 6, horse). Also, the “Zahl der Larven im Kot an den Tagen nach der Behandlung” value came to 0 in the assay on Gasterophilus nasalis (day 7, horse); 2 in assay [2] (day 1, horse); 16 in assay [2] (day 2, horse); 18 in assay [2] (day 3, horse); 5 in assay [2] (day 4, horse); 0 in assay [2] (day 5, horse). Moreover, the “Zahl der Larven im Kot an den Tagen nach der Behandlung” value in assay [2] (day 6, horse) was 0; in assay [2] (day 7, horse) it was 0. Besides, the “%-Wirksamkeit” value with Gasterophilus nasalis turned out to be 100%; in assay [2], 93%. In addition, the “noch im Magen festgeheftet” value with Gasterophilus nasalis came to 0; in assay [2], 3. Also, the entries for the “Zahl der Larven im Kot Total” value (in the assay on Gasterophilus nasalis; in assay [2]) were 6 and 41, respectively. The “Zahl toter Larven Stunden nach Behandlung” value in assay [1] (1 h after treatment), in assay [1] (6 h after treatment), in assay [1] (24 h after treatment), in assay [1] (48 h after treatment), in assay [1] (72 h after treatment) and in assay [1] (96 h after treatment) was 10 in each case. Moreover, in assay [1] (120 h after treatment), the “Zahl toter Larven Stunden nach Behandlung” value was found to be 10.

As for `CC1(C)[C@H](C(=O)O[C@H](C#N)c2cccc(Oc3ccccc3)c2)[C@@H]1C=C(Cl)Cl` [Verbindung B, (S)-a-Cyan-3-phenoxybenzyl (1R)-cis-3-(2,2-dichlorvinyl)-2,2-dimethylcyclopropancarboxylat], the “Zahl toter Larven Stunden nach Behandlung” value in assay [1] (1 h after treatment), in assay [1] (6 h after treatment), in assay [1] (24 h after treatment), in assay [1] (48 h after treatment), in assay [1] (72 h after treatment) and in assay [1] (96 h after treatment) was 10 in each case. For the same molecule, the “Zahl toter Larven Stunden nach Behandlung” value in assay [1] (120 h after treatment) is recorded as 10.

Turning to `CC1(C)[C@H](C(=O)O[C@H](C#N)c2cccc(Oc3ccccc3)c2)[C@@H]1C(Br)C(Cl)(Cl)Br` (stereo partly drawn) [Verbindung C, (S)-o-Cyan-3-phenoxybenzyl(1R)-cis-3-(2', 2'-dichlor-1',2'-dibromäthyl)-2,2-dimethylcyclopropancarboxylat], the “Zahl der Larven im Kot an den Tagen nach der Behandlung” value in the assay on Gasterophilus nasalis (day 1, horse) was determined as 0; in the assay with Gasterophilus nasalis (day 2, horse) it was 3; in the assay on Gasterophilus nasalis (day 3, horse), 7; in the assay on Gasterophilus nasalis (day 4, horse), 1; with Gasterophilus nasalis (day 5, horse) it was 0; in the assay with Gasterophilus nasalis (day 6, horse) it was 0. The “Zahl der Larven im Kot an den Tagen nach der Behandlung” value in the assay on Gasterophilus nasalis (day 7, horse) worked out at 0; in assay [2] (day 1, horse) it was 1; in assay [2] (day 2, horse) it was 2; in assay [2] (day 3, horse), 8; in assay [2] (day 4, horse), 10; in assay [2] (day 5, horse), 7. For the same molecule, the “Zahl der Larven im Kot an den Tagen nach der Behandlung” value in assay [2] (day 6, horse) turned out to be 2; in assay [2] (day 7, horse), 0. Besides, the “%-Wirksamkeit” value (in the assay on Gasterophilus nasalis; in assay [2]) was 100% each time. For the same molecule, the “noch im Magen festgeheftet” value (in the assay with Gasterophilus nasalis; in assay [2]) was 0 each time. The “Zahl der Larven im Kot Total” value with Gasterophilus nasalis is reported as 11; in assay [2] it was 30. The “Zahl toter Larven Stunden nach Behandlung” value in assay [1] (1 h after treatment) is on record as 4; in assay [1] (6 h after treatment), 10; in assay [1] (24 h after treatment), 10; in assay [1] (48 h after treatment), 10; in assay [1] (72 h after treatment), 10; in assay [1] (96 h after treatment), 10. In assay [1] (120 h after treatment), the “Zahl toter Larven Stunden nach Behandlung” value amounted to 10.
